Series [1] concerns the target T1, OX2R (Homo sapiens, UniProt O43614).
T1 construct: expressed in transfected cells
T1 sequence (O43614 1-444): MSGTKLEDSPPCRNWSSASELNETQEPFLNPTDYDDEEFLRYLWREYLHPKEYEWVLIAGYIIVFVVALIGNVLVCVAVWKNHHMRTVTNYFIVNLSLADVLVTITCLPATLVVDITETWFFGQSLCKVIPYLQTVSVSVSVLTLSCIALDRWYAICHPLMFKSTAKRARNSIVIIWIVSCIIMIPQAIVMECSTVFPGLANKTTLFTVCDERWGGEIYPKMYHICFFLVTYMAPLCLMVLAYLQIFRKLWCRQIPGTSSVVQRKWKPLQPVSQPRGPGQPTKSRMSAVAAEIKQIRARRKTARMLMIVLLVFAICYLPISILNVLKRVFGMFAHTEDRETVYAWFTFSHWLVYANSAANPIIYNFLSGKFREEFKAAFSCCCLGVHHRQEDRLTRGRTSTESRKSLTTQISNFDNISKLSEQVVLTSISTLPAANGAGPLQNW
The series is described as follows: FLIPR intracellular calcium antagonism test, HEK293-OX2R cells. The settings on record: Orexin A at EC70, read-out: hOX2R IC50. The series is classed as cell-based. The procedure: The change of intracellular calcium signal was detected by FLIPR, and the antagonism of the compounds on OX1R and OX2R receptors was evaluated by using IC50 value of the compounds as an index.
• Cell lines: Transfected HEK293-OX1R and HEK293-OX2R stable cell lines • HEK293-OX1R cell culture medium (DMEM, Invitrogen #11960-044, 10% serum Gibco #10099141, L-Glutamine 1×, Gibco #25030, sodium pyruvate 1×, Gibco #11360, Geneticin 300 μg/mL, Gibco #10131) • HEK293-OX2R cell culture medium (DMEM, Invitrogen #11960-044, 10% serum Gibco #10099141, L-Glutamine 1×, Gibco #25030, sodium pyruvate 1×, Gibco #11360, Geneticin 300 μg/mL, Gibco #10131, Blasticin 2 μg/mL, Invitrogen #R21001)
Experimental Steps and Methods: • a) Cell seeding (HEK293-OX1R and HEK293-OX2R cells) • 1) preheating the culture medium, trypsin and DPBS under water bath at 37° C.; pipetting and removing the medium of cell culture and washing same with 10 mL of DPBS; • 2) adding the preheated trypsin to a culture flask, rotating the culture flask so that the trypsin evenly covered the culture flask, and putting the culture flask in a 37° C., 5% CO2 incubator for digestion for 1-2 min; • 3) suspending the cells with 10-15 mL of medium for each T150 and centrifuging at 800 rpm for 5 min; resuspending the cells with 10 mL of medium, pipetting 1 mL of the cell suspension and counting with Vi-cell; • 4) diluting OX1R cells with medium to 5×10^5 cells/mL, and diluting OX2R cells with medium to 4×10^5 cells/mL, and adding the diluted cells to 384 plate (Greiner.781946) with a multi-channel pipette (50 μL/well, 25000 cells/well for OX1R cells, 20000 cells/well for OX2R cells); placing the cell plate in a 37° C., 5% CO2 incubator overnight. • b) Compound loading: • 1) diluting the compound to 20 mM with DMSO, 3-fold dilution, 8 gradients, duplicate wells, and adding same to a compound plate with an Echo liquid handler; then adding 20 μL of buffer to maintain the final concentration of DMSO of 0.1%. • c) FLIPR experiment: • 1) washing off the cell culture medium in the 384 plate with a vacuum pump, adding […] Direct fluorescent dye, incubating in 37° C., 5% CO2 incubator for 1 h, and balancing at room temperature for another 10 min. • 2) EC50 test: manually diluting Orexin A on ice, 3-fold dilution, 8 gradients, duplicate wells; preparing a DMSO plate and keep the DMSO concentration to be 0.5%; putting the cell plate, OrexinA plate, and DMSO plate in FLIPR respectively, and reading the fluorescence value. • 3) calculating the EC70 value based on the EC50 value of Orexin A; preparing a 5×EC70 solution, adding same to 384 compound plate with a multi-channel pipette, and storing on ice; • 4) putting the compound plate, 5×EC70 plate, cell plate, and FLIPR tip in sequence in FLIPR, running the program, and reading the fluorescence value. • d) Data analyzing: using Prism5.0 to analyze the data, and calculating the IC50 value of the compound.
For orientation: A change in cytosolic calcium serves as a functional read-out for many receptors and channels.

A short description of series [2]: Drug concentration in brain tissue and plasma of SD rats. The settings on record: male, Sprague-Dawley (SD), po, SD rat, p.o. 30 mg/kg. The format is in vivo. Here is the method:
4 healthy SD rats aged 6-9 weeks were selected, and the […] given the test compound at 10 mg/kg by intragastric administration. 2 animals were randomly selected at 0.5 h and 2 h after administration, respectively. Plasma and brain tissue samples were collected, and LC-MS/MS method was used for quantitative analysis of all biological samples.
4 healthy male SD rats aged 6-9 weeks were selected and given the test compound by intragastric administration. 2 animals were randomly selected to be euthanized at 0.5 h and 2 h after administration, respectively. Plasma and brain tissue samples were collected, and LC-MS/MS method was used for quantitative analysis of all biological samples.

Read-outs that look alike come from different tables or passages of the source.

Usually IC50 stands for the concentration that inhibits the measured activity by half. For the compound `COc1ccc(-n2nccn2)c(C(=O)N2C(c3nc4ccc(OC)cc4[nH]3)CC3CC32)c1` (stereo not shown) [Compound 8], the IC50 in series [1] was determined as 42 nM. In addition, the Kp at 0.5 h in series [2] (brain / plasma, 0.5 h, read-out: Brain-to-blood ratio) amounted to 0.25. The Kp at 2 h in series [2] (brain / plasma, 2 h, read-out: Brain-to-blood ratio) stood at 0.19. Moreover, the concentration at 0.5 h amounted to 1.39 µM in series [2] (brain, 0.5 h, read-out: Drug concentration in brain) and 5.6 µM in series [2] (plasma, 0.5 h, read-out: Drug concentration in plasma). Moreover, the concentration at 2 h was found to be 212 nM in series [2] (brain, 2 h, read-out: Drug concentration in brain) and 1100 nM in series [2] (plasma, 2 h, read-out: Drug concentration in plasma).

The values are drawn from patent US12583841B2, “Tetrahydropyrrolocyclic compound and application thereof” (Breakthrough Pharmaceuticals Inc., priority 2021, dated 2026).
